Experimental data: patent publication US7943628B2, “Pyrimidine derivatives” (Pfizer Limited, priority 2005, dated 2011)
Read-outs that look alike come from different tables or passages of the source.

Target: T1, histamine H4 receptor (Homo sapiens, UniProt Q9H3N8)
T1 construct: expressed in transfected cells; host or cells: CHO cells
Assay: H4 binding, method 2 ([3H]-histamine binding with Ysi WGA beads on CHO cell membranes)
Conditions: H4 binding, method 2, Ki calculated from IC50 (Cheng-Prussoff)
Description: Cell pellets from CHO cells expressing the histamine H4 receptor were homogenised in ice-cold 50 mM Tris-HCl/0.5 mM CaCl2 buffer containing a protease inhibitor cocktail (Roche®, United Kingdom) using a ground glass homogeniser. Homogenates were centrifuged at 48000 g for 30 min at 4° C. The membrane pellet was resuspended in fresh buffer and the centrifugation step was repeated as described above. The membrane pellet was resuspended in 50 mM Tris-HCl in the same volume as the original cell pellet. Aliquots of membrane preparations were stored at −80° C. and were used for [^3H]-Histamine binding experiments.
Cell membranes (15 μg/well) were pre-incubated for 120 min shaking at 4° C. with Ysi WGA beads (250 μg/well) in 50 mM Tris-HCl (pH 7.4) followed by centrifugation at 1500 rpm for 5 minutes and resuspension in 50 mM Tris-HCl (pH 7.4). The membrane/bead mixture (15 μg membrane/250 μg beads well) was incubated for 90 minutes shaking at room temperature with 6.5 nM [2,5-^3H] Histamine dihydrochloride (30-60 Ci/mmol) in 50 mM Tris-HCl (pH 7.4), with or without competing H4 ligands. Non-specific binding was defined with 10 μM JNJ7777120. Bound radiolabel was determined using scintillation counting techniques after 90 minutes.

Structure (SMILES)	Ki (read-out: Method 2 (Ki (nM))) [nM]	Ki (Method 2 (Ki (nM))) [nM]
CC(C)CNc1cc(N2C[C@H]3CCCN[C@H]3C2)ncn1 (relative stereo) [Example 125, N-Isobutyl-6-[(4aR*,7aR*)-octahydro-6H-pyrrolo[3,4-b]pyridin-6-yl]pyrimidin-4-amine]	223	–
CCCNc1cc(N2C[C@H]3CN(C)C[C@H]3C2)nc(N)n1 [Example 34, 6-[(3aR*,6aS*)-5-Methylhexahydropyrrolo[3,4-c]pyrrol-2(1H)-yl]-N^4-propylpyrimidine-2,4-diamine]	452	–
CNc1cc(N2C[C@H]3CN(C)C[C@H]3C2)nc(N)n1 [Example 35, N^4-Methyl-6-[(3aR*,6aS*)-5-methylhexahydro-pyrrolo[3,4-c]pyrrol-2(1H)-yl]pyrimidine-2,4-diamine]	662	–
CCNc1cc(N2C[C@H]3CN(C)C[C@H]3C2)nc(N)n1 [Example 36, N^4-Ethyl-6-[(3aR*,6aS*)-5-methylhexahydro-pyrrolo[3,4-c]pyrrol-2(1H)-yl]pyrimidine-2,4-diamine]	1620	–
CC(C)CNc1cc(N2C[C@H]3CN(C)C[C@H]3C2)nc(N)n1 [Example 37, N^4-Isobutyl-6-[(3aR*,6aS*)-5-methylhexahydro-pyrrolo[3,4-c]pyrrol-2(1H)-yl]pyrimidine-2,4-diamine]	181	–
CN1C[C@@H]2CN(c3cc(NCC4CC4)nc(N)n3)C[C@@H]2C1 [Example 38, N^4-(Cyclopropylmethyl)-6-[(3aR*,6aS*)-5-methylhexahydro-pyrrolo[3,4-c]pyrrol-2(1H)-yl]pyrimidine-2,4-diamine]	128	–
CN1C[C@@H]2CN(c3cc(NCC(C)(C)C)nc(N)n3)C[C@@H]2C1 [Example 39, N^4-(2,2-Dimethylpropyl)-6-[(3aR*,6aS*)-5-methylhexahydro-pyrrolo[3,4-c]pyrrol-2(1H)-yl]pyrimidine-2,4-diamine]	–	88.9
CN1C[C@@H]2CN(c3cc(NCCC(C)(C)C)nc(N)n3)C[C@@H]2C1 [Example 40, N^4-(3,3-Dimethylbutyl)-6-[(3aR*,6aS*)-5-methylhexahydro-pyrrolo[3,4-c]pyrrol-2(1H)-yl]pyrimidine-2,4-diamine]	192	–

Further lines, with some results ahead:

Ki (read-out: Method 2 (Ki (nM))) [nM]	Structure (SMILES)	Ki (Method 2 (Ki (nM))) [nM]
52.4	CCNc1cc(N2CC[C@@H](NC)C2)nc(N)n1 [Example 12, N^4-Ethyl-6-[(3R)-3-(methylamino)pyrrolidin-1-yl]pyrimidine-2,4-diamine]	–
51.8	CCNc1cc(N2CC[C@@H](NC)C2)ncn1 [Example 13, N-Ethyl-6-[(3R)-3-(methyl-amino)pyrrolidin-1-yl]pyrimidin-4-amine]	–
19.2	CN[C@@H]1CCN(c2cc(NCC3CC3)ncn2)C1 [Example 15, N-(Cyclopropylmethyl)-6-[(3R)-3-(methylamino)pyrrolidin-1-yl] pyrimidin-4-amine]	–
1740	CCNc1cc(N2CC[C@H](NC)C2)ncn1 [Example 16, N-Ethyl-6-[(3S)-3-(methyl-amino)pyrrolidin-1-yl] pyrimidin-4-amine]	–
483	CN[C@H]1CCN(c2cc(NCCC(C)(C)C)ncn2)C1 [Example 17, N-(3,3-Dimethylbutyl)-6-[(3S)-3-(methylamino)pyrrolidin-1-yl]pyrimidin-4-amine]	–
387	CN(C)[C@@H]1CCN(c2cc(NCCC(C)(C)C)ncn2)C1 [Example 18, 6-[(3R)-3-(Dimethylamino)pyrrolidin-1-yl]-N-(3,3-dimethylbutyl)pyrimidin-4-amine]	–
132	CN(C)[C@@H]1CCN(c2cc(NCC3CC3)ncn2)C1 [Example 19, N-(Cyclopropylmethyl)-6-[(3R)-3-(dimethylamino)pyrrolidin-1-yl]pyrimidin-4-amine]	–
722	CCNc1cc(N2CC[C@@H](N(C)C)C2)ncn1 [Example 21, 6-[(3R)-3-(Dimethylamino)pyrrolidin-1-yl]-N-ethyl-pyrimidin-4-amine]	–
202	CC(C)CCNc1cc(N2C[C@H]3CN(C)C[C@H]3C2)nc(N)n1 [Example 41, N^4-(3-Methylbutyl)-6-[(3aR*,6aS*)-5-methylhexahydro-pyrrolo[3,4-c]pyrrol-2(1H)-yl]pyrimidine-2,4-diamine]	–
